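Dose response: 5 concentrations. Exposure: 48 h. Format: 96-well plates. Endpoint: linear interpolation; highest concentration if not reached. GI50 is the concentration that inhibits growth by half. TGI marks complete inhibition of growth.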
Legend:
Experiment in all cases: NCI tumour cell line growth inhibition, 48 h
COLO 205 colon = system: COLO 205 colon
HCC-2998 colon = system: HCC-2998 colon
A549 NSCLC = system: A549 NSCLC
HOP-62 NSCLC = system: HOP-62 NSCLC
OVCAR-5 ovarian = system: OVCAR-5 ovarian
RPMI-8226 leukemia = system: RPMI-8226 leukemia
SK-MEL-5 melanoma = system: SK-MEL-5 melanoma
SF-268 CNS = system: SF-268 CNS
SN12C renal = system: SN12C renal
UACC-257 melanoma = system: UACC-257 melanoma
M14 melanoma = system: M14 melanoma
NCI-H460 lung = system: NCI-H460 lung
786-0 renal = system: 786-0 renal
SW-620 colon = system: SW-620 colon
SNB-19 CNS = system: SNB-19 CNS
MDA-MB-435 = system: MDA-MB-435
T-47D breast = system: T-47D breast
RXF 393 renal = system: RXF 393 renal
PC-3 prostate = system: PC-3 prostate
BT-549 breast = system: BT-549 breast
OVCAR-8 ovarian = system: OVCAR-8 ovarian
MALME-3M melanoma = system: MALME-3M melanoma
DU-145 prostate = system: DU-145 prostate
NCI-H522 lung = system: NCI-H522 lung
NCI-H226 lung = system: NCI-H226 lung
HOP-92 NSCLC = system: HOP-92 NSCLC
OVCAR-4 ovarian = system: OVCAR-4 ovarian
MCF7 breast = system: MCF7 breast
HCT-15 colon = system: HCT-15 colon

## c1ccc2nc(N/N=C3\CCCCC3C3CCCCC3)ccc2c1 (configuration not stated)
COLO 205 colon
  TGI: 12.7 µM
HCC-2998 colon
  GI50: 3.46 µM
  TGI: 14 µM
A549 NSCLC
  GI50: 6.26 µM
  TGI: 29.1 µM
HOP-62 NSCLC
  GI50: 11.8 µM
  TGI: 25.7 µM
OVCAR-5 ovarian
  GI50: 8.27 µM
  TGI: 21.5 µM
RPMI-8226 leukemia
  GI50: 2.02 µM
  TGI: 4.76 µM
SK-MEL-5 melanoma
  GI50: 2.58 µM
  TGI: 10.4 µM
SF-268 CNS
  GI50: 10.8 µM
  TGI: 24.9 µM
SN12C renal
  GI50: 6.54 µM
  TGI: 21.1 µM
UACC-257 melanoma
  GI50: 10.3 µM
  TGI: 27.5 µM
M14 melanoma
  GI50: 10.3 µM
  TGI: 26.5 µM
NCI-H460 lung
  GI50: 3.84 µM
  TGI: 16.5 µM
786-0 renal
  GI50: 7.12 µM
  TGI: 21.6 µM
SW-620 colon
  GI50: 4.12 µM
  TGI: 16.3 µM
SNB-19 CNS
  GI50: 11.4 µM
  TGI: 24.6 µM
MDA-MB-435
  GI50: 6.95 µM
  TGI: 21.3 µM
T-47D breast
  GI50: 4.33 µM
  TGI: 21.8 µM
RXF 393 renal
  GI50: 9.21 µM
  TGI: 26.9 µM
PC-3 prostate
  GI50: 3.07 µM
  TGI: 17.6 µM
BT-549 breast
  GI50: 9.09 µM
  TGI: 22.1 µM
OVCAR-8 ovarian
  GI50: 11.2 µM
  TGI: 29 µM
MALME-3M melanoma
  GI50: 2.36 µM
  TGI: 12.9 µM
DU-145 prostate
  GI50: 11.9 µM
  TGI: 24.8 µM
NCI-H522 lung
  GI50: 4.97 µM
  TGI: 20.4 µM
NCI-H226 lung
  GI50: 6.3 µM
  TGI: 22.9 µM
HOP-92 NSCLC
  GI50: 2.2 µM
  TGI: 10 µM
OVCAR-4 ovarian
  GI50: 3.9 µM
  TGI: 22.8 µM
MCF7 breast
  GI50: 2.46 µM
  TGI: 11.7 µM
HCT-15 colon
  GI50: 3.52 µM
  TGI: 14.8 µM
